Positions of bridges follow the written chain, without caps; N, C: chain ends. Non-standard residues stand in square brackets, D forms with d. Residues, ends and D or L forms follow the SMILES beside them.
Target: T1, GBA2 (Homo sapiens, UniProt Q9HCG7)
T1 construct: expressed in transfected cells
T1 sequence (Q9HCG7 1-927): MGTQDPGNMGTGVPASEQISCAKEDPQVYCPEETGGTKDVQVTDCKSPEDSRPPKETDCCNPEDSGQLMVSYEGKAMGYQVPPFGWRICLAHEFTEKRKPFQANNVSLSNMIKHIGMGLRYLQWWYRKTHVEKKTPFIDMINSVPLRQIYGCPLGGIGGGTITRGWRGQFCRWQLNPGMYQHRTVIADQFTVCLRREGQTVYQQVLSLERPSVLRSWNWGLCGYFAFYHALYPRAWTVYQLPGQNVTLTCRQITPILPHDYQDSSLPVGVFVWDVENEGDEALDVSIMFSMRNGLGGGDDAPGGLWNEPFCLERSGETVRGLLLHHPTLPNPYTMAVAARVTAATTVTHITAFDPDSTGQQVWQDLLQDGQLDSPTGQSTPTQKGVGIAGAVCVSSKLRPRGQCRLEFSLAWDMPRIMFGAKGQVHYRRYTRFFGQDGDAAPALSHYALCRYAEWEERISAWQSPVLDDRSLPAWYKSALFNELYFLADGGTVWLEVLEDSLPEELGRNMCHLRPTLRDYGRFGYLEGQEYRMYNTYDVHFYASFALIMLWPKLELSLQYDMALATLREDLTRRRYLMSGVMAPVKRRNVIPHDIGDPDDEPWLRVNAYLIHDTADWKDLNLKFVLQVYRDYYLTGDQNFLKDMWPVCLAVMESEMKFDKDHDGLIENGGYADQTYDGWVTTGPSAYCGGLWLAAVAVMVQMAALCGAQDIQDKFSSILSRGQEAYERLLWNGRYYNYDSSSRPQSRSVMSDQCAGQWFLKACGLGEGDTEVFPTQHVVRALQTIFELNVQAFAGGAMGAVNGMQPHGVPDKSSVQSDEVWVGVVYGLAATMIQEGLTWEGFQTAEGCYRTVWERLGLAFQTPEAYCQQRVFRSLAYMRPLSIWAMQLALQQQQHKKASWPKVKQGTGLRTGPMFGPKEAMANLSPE
Assay: GBA2 inhibition in overexpressing HEK293T lysates
Type: biochemical
Settings: McIlvaine pH 5.8, 4-MU substrate
Experimental: Based on the pull-down validation, a set of eight cyclic peptides (L1, L2, L4, L6, D1, D8, D12 and D13) were identified, synthesized, and evaluated for their inhibitory potency against recombinant human GBA1 (rhGBA1, Cerezyme®) and their selectivity over human β-glucosidases GBA2 and GBA3. Half-maximum inhibitory concentration (IC50) values for β-glucosidases were determined in vitro by measuring hydrolysis of 4-methylumbelliferyl-β-D-glucopyranoside (4-MU-β-D-Glu) fluorogenic substrate. […]
2.5. In vitro IC50 and Ki measurements […]
nM) at 37 °C for 30 min. Following this, 100 µL of 4MU substrate was added and the samples were again incubated at 37 °C for 30 min. The reaction was quenched using excess 1 M NaOH-glycine (200 µL, pH 10.3) and 4MU fluorescence was measured using a LS55 fluorimeter (λEx 366 nm and λEm 445 […]
GBA2 and GBA3 IC50 values were determined following a similar protocol,5 using stable GBA2 or GBA3 HEK293T over-expression cell lysates and McIlvaine buffer pH 5.8 with 0.1 % BSA (w/v) and 100 mM HEPES with 0.1 % BSA, respectively. Covalent inhibitor of endogenous GBA1 (1 µM Bodipy green-cyclophellitol β-epoxide activity based probe) was added for both GBA2 and GBA3 assays, and GBA2 inhibitor N-(5-adamantane-1-yl-methoxy-pentyl)-deoxynojirimycin, AMP-DNM at 1 nM) was added for GBA3 assay. Cell lysates were pre-incubated with the aforementioned GBA1/GBA2 inhibitors for 30 min at 37 °C (12.5 µL) and subsequently incubated with the tested ligands at a range of concentrations for 30 min at 37 °C (12.5 µL), after which 100 µL 4MU-β-D-glucopyranoside was added for a final incubation of 30 min at 37 °C, quenched with 200 µL 1 M NaOH-glycine (pH 10.3) and fluorescence was measured. IC50 values were calculated using GraphPad Prism version 8.

SMILES | IC50 [µM]
CC[C@H](C)[C@H](NC(=O)[C@H](CC(C)C)NC(=O)[C@H](Cc1ccc(O)cc1)NC(=O)[C@H](Cc1ccc(O)cc1)NC(=O)[C@@H]1CSCC(=O)N[C@H](Cc2ccc(O)cc2)C(=O)N[C@@H](CCCNC(=N)N)C(=O)N[C@@H](C(C)C)C(=O)N1)C(=O)N[C@H](C(=O)N[C@H](C(=O)N[C@@H](CC(C)C)C(=O)N[C@@H](CC(=O)O)C(=O)N[C@@H](CS)C(N)=O)C(C)C)[C@@H](C)O [D1] ({CH2CO}-[dY]RVCYYLITVLDC-NH2; thioether N-4) | > 100
CC(C)C[C@H](NC(=O)[C@@H](NC(=O)[C@H](CCCNC(=N)N)NC(=O)[C@@H]1CSCC(=O)N[C@H](Cc2ccc(O)cc2)C(=O)N[C@@H]([C@@H](C)O)C(=O)N2CCC[C@H]2C(=O)NCC(=O)N[C@@H](Cc2ccc(O)cc2)C(=O)N[C@@H](C(C)C)C(=O)N[C@@H](Cc2ccc(O)cc2)C(=O)N1)C(C)C)C(=O)N[C@@H](CCCCN)C(=O)N[C@@H](Cc1ccc(O)cc1)C(=O)N[C@@H](CS)C(N)=O [D8] ({CH2CO}-[dY]TPGYVYCRVLKYC-NH2; thioether N-8) | > 100
CC(C)C[C@@H]1NC(=O)CNC(=O)[C@H](CC(C)C)NC(=O)[C@@H](Cc2ccc(O)cc2)NC(=O)CSC[C@@H](C(N)=O)NC(=O)[C@H](CO)NC(=O)[C@H](CCCCN)NC(=O)[C@H](CC(C)C)NC(=O)[C@H](Cc2ccccc2)NC(=O)[C@H](CCCNC(=N)N)NC(=O)[C@H](Cc2ccc(O)cc2)NC(=O)[C@H](Cc2c[nH]c3ccccc23)NC1=O [D12] ({CH2CO}-[dY]LGLWYRFLKSC-NH2; thioether N-12) | > 100
CC[C@H](C)[C@@H]1NC(=O)[C@H](CO)NC(=O)[C@H](CS)NC(=O)CNC(=O)CNC(=O)[C@H](CC(C)C)NC(=O)[C@H](Cc2ccc(O)cc2)NC(=O)[C@H](C(C)C)NC(=O)[C@H](CC(C)C)NC(=O)[C@H](CCCNC(=N)N)NC(=O)[C@@H]2CCCN2C(=O)[C@H](Cc2ccc(O)cc2)NC(=O)CSC[C@@H](C(N)=O)NC(=O)[C@H](CCC(=O)O)NC(=O)[C@H](CC(C)C)NC(=O)[C@H](CC(C)C)NC1=O [L1] ({CH2CO}-YPRLVYLGGCSILLEC-NH2; thioether N-16) | > 100
CC[C@H](C)[C@H](NC(=O)[C@H](CCCNC(=N)N)NC(=O)[C@@H]1CSCC(=O)N[C@@H](Cc2ccc(O)cc2)C(=O)N[C@@H](C)C(=O)N[C@@H](Cc2ccc(O)cc2)C(=O)N[C@@H](Cc2c[nH]c3ccccc23)C(=O)N[C@@H](Cc2c[nH]c3ccccc23)C(=O)N[C@@H](CC(C)C)C(=O)N1)C(=O)N1CCC[C@H]1C(=O)N[C@@H](Cc1c[nH]c2ccccc12)C(=O)N[C@@H](CC(C)C)C(=O)N[C@@H](CO)C(=O)N[C@H](C(N)=O)C(C)C [L2] ({CH2CO}-YAYWWLCRIPWLSV-NH2; thioether N-7) | > 100
CC(C)C[C@@H]1NC(=O)CNC(=O)[C@H](Cc2ccccc2)NC(=O)[C@H](CC(C)C)NC(=O)[C@@H]2CCCN2C(=O)[C@H](Cc2ccc(O)cc2)NC(=O)CSC[C@@H](C(=O)N2CCC[C@H]2C(=O)N[C@@H](CC(N)=O)C(=O)N[C@@H](Cc2c[nH]c3ccccc23)C(=O)N[C@@H](Cc2ccccc2)C(=O)N2CCC[C@H]2C(=O)N[C@@H](Cc2ccc(O)cc2)C(=O)N[C@@H](CCC(N)=O)C(=O)N[C@@H](CS)C(N)=O)NC(=O)[C@H](CO)NC(=O)[C@H](Cc2ccccc2)NC1=O [L4] ({CH2CO}-YPLFGLFSCPNWFPYQC-NH2; thioether N-9) | > 100
CC[C@H](C)[C@@H]1NC(=O)[C@H](Cc2ccc(O)cc2)NC(=O)CSC[C@@H](C(N)=O)NC(=O)[C@H](Cc2c[nH]c3ccccc23)NC(=O)[C@H](CCC(N)=O)NC(=O)[C@H]([C@@H](C)CC)NC(=O)[C@H]([C@@H](C)CC)NC(=O)[C@@H]2CCCN2C(=O)[C@H](C(C)C)NC(=O)[C@H](Cc2ccc(O)cc2)NC(=O)[C@H](Cc2c[nH]c3ccccc23)NC(=O)[C@H](CO)NC1=O [L6] ({CH2CO}-YISWYVPIIQWC-NH2; thioether N-12) | > 100

Source: publication PMC11808397, “Development of selective nanomolar cyclic peptide ligands as GBA1 enzyme stabilisers” (RSC Chemical Biology, 2025)
